Experimental data as given in US20250195530A1, “POLQ INHIBITORS” (ASTRAZENECA AB, priority 2022, published 2025).
Like-named read-outs stand apart in the source and are kept apart here.

What was measured:
DLD-1 BRCA2−/− cells = assay: Homologous recombination synthetic lethal inhibition of proliferation, DLD-1 BRCA2-/- (Cell Titre Glo 3D); type: cell-based; settings: Homo sapiens, read-out: POLQ PD Prolif Lumin (converted)
Summary of the method: (§1)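 Read-out: CellTiter-Glo 3D luminescence, day 7 for wt DLD-1, day 12 for BRCA2−/−, about 8-9 population doublings each. Seeding 1,500 or 3,000 cells/mL respectively. Dose range 10 μM–0.51 nM, 3-fold, 10 points, with re-dosing on day 6. IC50 from curve fit.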

DLD-1 cells = assay: Inhibition of proliferation, DLD-1 BRCA2 wt control (Cell Titre Glo 3D); type: cell-based; settings: Homo sapiens, read-out: POLQ PD Prolif Lumin (converted)
Summary of the method: as §1

[1] = DLD-1, first proliferation column (c5), DLD-1 BRCA2-/-
[2] = DLD-1, second proliferation column (c6), DLD-1 BRCA2 wt control
[3] = DLD-1, DLD-1 BRCA2-/- proliferation, column head only partly shown
[4] = DLD-1, DLD-1 BRCA2 wt control proliferation, column head only partly shown

IC50 (DLD-1 cells; [2]) [nM]	IC50 (DLD-1 cells; [4]) [nM]	SMILES	IC50 (DLD-1 BRCA2−/− cells; [1]) [nM]	IC50 (DLD-1 BRCA2−/− cells; [3]) [nM]
10000		Cc1ccnc(Cn2c(-c3ccc(C(=O)N4CCC4)cc3Cl)nc3c(OC4(C)CC4)ncnc32)c1 [Example T169, azetidin-1-yl(3-chloro-4-(6-(1-methylcyclopropoxy)-9-((4-methylpyridin-2-yl)methyl)-9H-purin-8-yl)phenyl)methanone]	631	
> 10000		Cc1ccnc(Cn2c(-c3ccc(N4CCCC4=O)cc3Cl)nc3c(OC4(C)CC4)ncnc32)c1 [Example T171, 1-(3-chloro-4-(6-(1-methylcyclopropoxy)-9-((4-methylpyridin-2-yl)methyl)-9H-purin-8-yl)phenyl)pyrrolidin-2-one]	158	
> 10000		Cc1ccnc(Cn2c(-c3ccc(O[C@H]4CCNC4=O)cc3Cl)nc3c(OC4(C)CC4)ncnc32)c1 [Example T185, (S)-3-(3-chloro-4-(6-(1-methylcyclopropoxy)-9-((4-methylpyridin-2-yl)methyl)-9H-purin-8-yl)phenoxy)pyrrolidin-2-one]	501	
> 10000		Cc1ccnc(Cn2c(-c3ccc(O[C@@H]4CCNC4=O)cc3Cl)nc3c(OC4(C)CC4)ncnc32)c1 [Example T186, (R)-3-(3-chloro-4-(6-(1-methylcyclopropoxy)-9-((4-methylpyridin-2-yl)methyl)-9H-purin-8-yl)phenoxy)pyrrolidin-2-one]	251	
> 10000		Cc1ccnc(Cn2c(-c3ccc(OCC4(O)CC4)cc3Cl)nc3c(OC4(C)CC4)ncnc32)c1 [Example T197, 1-((3-chloro-4-(6-(1-methylcyclopropoxy)-9-((4-methylpyridin-2-yl)methyl)-9H-purin-8-yl)phenoxy)methyl)cyclopropan-1-ol]	251	
	> 10000	CC1(Oc2ncnc3c2nc(-c2ccc(OCCN4CC(O)C4)cc2Cl)n3Cc2cc(Cl)ccn2)CC1 [Example T206, 1-(2-(3-chloro-4-(9-((4-chloropyridin-2-yl)methyl)-6-(1-methylcyclopropoxy)-9H-purin-8-yl)phenoxy)ethyl)azetidin-3-ol]		126
	10000	CC1(Oc2ncnc3c2nc(-c2ccc(OCCN4CCNCC4)cc2Cl)n3Cc2ncc(C(F)(F)F)s2)CC1 [Example T207, 2-((8-(2-chloro-4-(2-(piperazin-1-yl)ethoxy)phenyl)-6-(1-methylcyclopropoxy)-9H-purin-9-yl)methyl)-5-(trifluoromethyl)thiazole]		794
	> 10000	Cc1ccnc(Cn2c(-c3ccc(O[C@H]4CCNC4)cc3Cl)nc3c(OC4(C)CC4)ncnc32)c1 [Example T208, (S)-8-(2-chloro-4-(pyrrolidin-3-yloxy)phenyl)-6-(1-methylcyclopropoxy)-9-((4-methylpyridin-2-yl)methyl)-9H-purine]		501
	> 10000	Cc1cnc(Cn2c(-c3ccc(OC4CC5(CNC5)C4)cc3Cl)nc3c(OC4(C)CC4)ncnc32)s1 [Example T215, 2-((8-(4-((2-azaspiro[3.3]heptan-6-yl)oxy)-2-chlorophenyl)-6-(1-methylcyclopropoxy)-9H-purin-9-yl)methyl)-5-methylthiazole]		1000
	> 10000	Cc1ccnc(Cn2c(-c3ccc(OCCCS(C)(=O)=O)cc3Cl)nc3c(OC4(C)CC4)ncnc32)c1 [Example T234, 8-(2-chloro-4-(3-(methylsulfonyl)propoxy)phenyl)-6-(1-methylcyclopropoxy)-9-((4-methylpyridin-2-yl)methyl)-9H-purine]		200
	> 10000	CNCCCOc1ccc(-c2nc3c(OC4(C)CC4)ncnc3n2Cc2cc(C)ccn2)c(Cl)c1 [Example T238, 3-(3-chloro-4-(6-(1-methylcyclopropoxy)-9-((4-methylpyridin-2-yl)methyl)-9H-purin-8-yl)phenoxy)-N-methylpropan-1-amine]		501
	> 10000	Cc1cnc(Cn2c(-c3ccc(OCCN4CCCC4)cc3Cl)nc3c(OC4(C)CC4)ncnc32)s1 [Example T239, 2-((8-(2-chloro-4-(2-(pyrrolidin-1-yl)ethoxy)phenyl)-6-(1-methylcyclopropoxy)-9H-purin-9-yl)methyl)-5-methylthiazole]		251
	> 10000	Cc1cnc(Cn2c(-c3ccc(OC[C@H]4CCCN4C)cc3Cl)nc3c(OC4(C)CC4)ncnc32)s1 [Example T240, (R)-2-((8-(2-chloro-4-((1-methylpyrrolidin-2-yl)methoxy)phenyl)-6-(1-methylcyclopropoxy)-9H-purin-9-yl)methyl)-5-methylthiazole]		316

Further lines, the compound ahead of its results:

SMILES	IC50 (DLD-1 cells; [2]) [nM]	IC50 (DLD-1 cells; [4]) [nM]	IC50 (DLD-1 BRCA2−/− cells; [1]) [nM]	IC50 (DLD-1 BRCA2−/− cells; [3]) [nM]
CC1(Oc2ncnc3c2nc(-c2ccc(OCCC(=O)O)cc2Cl)n3Cc2cccc(C(F)(F)F)c2)CC1 [Example T151, 3-(3-chloro-4-(6-(1-methylcyclopropoxy)-9-(3-(trifluoromethyl)benzyl)-9H-purin-8-yl)phenoxy)propanoic acid]	> 10000		398	
CC1(Oc2ncnc3c2nc(-c2cccc(OCCCC(=O)O)c2Cl)n3Cc2cccc(Cl)c2)CC1 [Example T157, 4-(2-chloro-3-(9-(3-chlorobenzyl)-6-(1-methylcyclopropoxy)-9H-purin-8-yl)phenoxy)butanoic acid]	> 10000		31.6	
CC1(Oc2ncnc3c2nc(-c2cccc(OC(C)(C)C(=O)O)c2Cl)n3Cc2cccc(Cl)c2)CC1 [Example T158, 2-(2-chloro-3-(9-(3-chlorobenzyl)-6-(1-methylcyclopropoxy)-9H-purin-8-yl)phenoxy)-2-methylpropanoic acid]	> 10000		> 10000	
Cc1ccnc(Cn2c(-c3ccc(N4CC[C@@H](O)C4=O)cc3Cl)nc3c(OC4(C)CC4)ncnc32)c1 [Example T181, (R)-1-(3-chloro-4-(6-(1-methylcyclopropoxy)-9-((4-methylpyridin-2-yl)methyl)-9H-purin-8-yl)phenyl)-3-hydroxypyrrolidin-2-one]	> 10000		316	
Cc1ccnc(Cn2c(-c3ccc(OCCN(C)C)cc3Cl)nc3c(OC4(C#N)CC4)ncnc32)c1 [Example T203, 1-((8-(2-chloro-4-(2-(dimethylamino)ethoxy)phenyl)-9-((4-methylpyridin-2-yl)methyl)-9H-purin-6-yl)oxy)cyclopropane-1-carbonitrile]		> 10000		398
Cc1ccnc(Cn2c(-c3ccc(N4CC(C(N)=O)C4)cc3Cl)nc3c(OC4(C)CC4)ncnc32)c1 [Example T204, 1-(3-chloro-4-(6-(1-methylcyclopropoxy)-9-((4-methylpyridin-2-yl)methyl)-9H-purin-8-yl)phenyl)azetidine-3-carboxamide]		> 10000		631
Cc1ccnc(Cn2c(-c3ccc(OC4CN(C(N)=O)C4)cc3Cl)nc3c(OC4(C)CC4)ncnc32)c1 [Example T205, 3-(3-chloro-4-(6-(1-methylcyclopropoxy)-9-((4-methylpyridin-2-yl)methyl)-9H-purin-8-yl)phenoxy)azetidine-1-carboxamide]		> 10000		398
Cc1ccnc(Cn2c(-c3ccc(CN4CC(O)C4)cc3Cl)nc3c(OC4(C)CC4)ncnc32)c1 [Example T209, 1-(3-chloro-4-(6-(1-methylcyclopropoxy)-9-((4-methylpyridin-2-yl)methyl)-9H-purin-8-yl)benzyl)azetidin-3-ol]		> 10000		631
Cc1ccnc(Cn2c(-c3ccc(CC(=O)N(C)C)cc3Cl)nc3c(OC4(C)CC4)ncnc32)c1 [Example T210, 2-(3-chloro-4-(6-(1-methylcyclopropoxy)-9-((4-methylpyridin-2-yl)methyl)-9H-purin-8-yl)phenyl)-N,N-dimethylacetamide]		> 10000		316
Cc1ccnc(Cn2c(-c3ccc(N4CCS(=O)(=O)CC4)cc3Cl)nc3c(OC4(C)CC4)ncnc32)c1 [Example T225, 4-(3-chloro-4-(6-(1-methylcyclopropoxy)-9-((4-methylpyridin-2-yl)methyl)-9H-purin-8-yl)phenyl)thiomorpholine 1,1-dioxide]		> 10000		631
CC1(Oc2ncnc3c2nc(-c2ccc(N4CCC(N)CC4)cc2Cl)n3Cc2cc(Cl)ccn2)CC1 [Example T230, 1-(3-chloro-4-(9-((4-chloropyridin-2-yl)methyl)-6-(1-methylcyclopropoxy)-9H-purin-8-yl)phenyl)piperidin-4-amine]		> 10000		398
CN(C)CCCOc1ccc(-c2nc3c(OC4(C)CC4)ncnc3n2Cc2cc(Cl)ccn2)c(F)c1 [Example T231, 3-(4-(9-((4-chloropyridin-2-yl)methyl)-6-(1-methylcyclopropoxy)-9H-purin-8-yl)-3-fluorophenoxy)-N,N-dimethylpropan-1-amine]		> 10000		251
Cc1ccnc(Cn2c(-c3ccc(CCN(C)C)cc3Cl)nc3c(OC4(C)CC4)ncnc32)c1 [Example T236, 2-(3-chloro-4-(6-(1-methylcyclopropoxy)-9-((4-methylpyridin-2-yl)methyl)-9H-purin-8-yl)phenyl)-N,N-dimethylethan-1-amine]		> 10000		251
Cc1ccnc(Cn2c(-c3cccc(OCCN(C)C)c3Cl)nc3c(OC4(C)CC4)ncnc32)c1 [Example T237, 2-(2-chloro-3-(6-(1-methylcyclopropoxy)-9-((4-methylpyridin-2-yl)methyl)-9H-purin-8-yl)phenoxy)-N,N-dimethylethan-1-amine]		> 10000		50.1
